One molecule from article PMC4579270, “Identification and Characterization of an Irreversible Inhibitor of CDK2” (Chemistry & Biology, 2015) can be followed below.

Holding throughout (test): Dundee protein kinase screen
Common to all, as to format: biochemical

For experiment [1], the target named is IRR (Homo sapiens, UniProt P14616). The settings on record: read-out: %Remaining activity at 1µM NU6300. How it is done:
(§1) Prior to determining its cellular activity, we carried out a screen to assess its selectivity against a panel of 131 protein kinases under conditions that would not distinguish between a reversible or irreversible mode of action. […] These 13 kinases and 29 additional kinases, selected for their known sensitivity to other inhibitors within the purine series, were then tested in a modified screening format in which the assay was repeated following a 4-hr pre-incubation (Table S3B). […] However, conformational flexibility around the active site may promote such an interaction with a residue from another part of the structure ([Martin et al., 2012]).
(§2) Table S3, Related to Figure 4. NCL-0006300 protein kinase selectivity. (A) NU6300 was tested at a single concentration of 1µM against 131 protein kinases present in a Dundee protein kinase screen (Bain et al., 2007). Values given are % activity remaining and are the average of duplicate measurements: 0-25% (red), 26-50% (yellow), 51-80% (black) and above 81% (green). The kinase domain sequences (as defined by UniProt) of […]
(§3) have a lysine residue at a position close to CDK2 Lys88 or Lys89. However, in the structure of tyrosine-protein kinase BTK (PDB ID: 3GEN) the residue equivalent to CDK2 Asp86 is Cys481 and therefore there is the potential for a covalent adduct to be formed through this side chain. […]

Experiment [2] has as its target ABL (Homo sapiens, UniProt P00519). As to conditions: read-out: %Remaining activity at 1µM NU6300. How it is done:
as §1, §2, §3

The target in experiment [3] is IKKb (Homo sapiens, UniProt O14920). As to conditions: read-out: %Remaining activity at 1µM NU6300. On the procedure: as §1, §2, §3
Experiment [4] deals with BTK (Homo sapiens, UniProt Q06187). The settings on record: read-out: %Remaining activity at 1µM NU6300. How it is done:
as §1, §2, §3

The target in experiment [5] is EF2K (Homo sapiens, UniProt O00418). The settings on record: read-out: %Remaining activity at 1µM NU6300. How it is done:
as §1, §2, §3

The target in experiment [6] is BRSK2 (Homo sapiens, UniProt Q8IWQ3). As to conditions: BRSK2, 1µM; read-out: %Remaining activity at 1µM NU6300. On the procedure:
as §1, §2, §3

The target of experiment [7] is T1, MARK4 (Homo sapiens, UniProt Q96L34).
T1 sequence (Q96L34 1-752): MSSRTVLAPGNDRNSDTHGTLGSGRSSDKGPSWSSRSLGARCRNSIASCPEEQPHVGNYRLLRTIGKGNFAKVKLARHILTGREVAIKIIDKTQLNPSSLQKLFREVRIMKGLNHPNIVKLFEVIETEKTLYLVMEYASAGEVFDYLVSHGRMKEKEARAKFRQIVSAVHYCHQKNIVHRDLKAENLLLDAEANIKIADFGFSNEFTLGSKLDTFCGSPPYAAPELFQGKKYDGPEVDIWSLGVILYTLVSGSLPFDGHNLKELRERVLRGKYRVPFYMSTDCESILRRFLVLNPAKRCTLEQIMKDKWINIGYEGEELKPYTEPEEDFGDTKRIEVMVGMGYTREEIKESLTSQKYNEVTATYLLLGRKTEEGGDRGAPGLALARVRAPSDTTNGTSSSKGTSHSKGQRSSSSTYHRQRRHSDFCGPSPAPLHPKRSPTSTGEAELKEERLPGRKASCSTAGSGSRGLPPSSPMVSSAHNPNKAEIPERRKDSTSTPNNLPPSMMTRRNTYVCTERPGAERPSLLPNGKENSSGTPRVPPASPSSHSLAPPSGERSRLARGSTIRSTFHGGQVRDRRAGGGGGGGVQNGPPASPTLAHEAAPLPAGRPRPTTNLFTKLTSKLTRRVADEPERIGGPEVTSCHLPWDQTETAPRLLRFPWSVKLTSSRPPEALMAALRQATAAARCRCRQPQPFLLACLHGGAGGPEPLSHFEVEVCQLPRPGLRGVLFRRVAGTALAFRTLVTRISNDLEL
As to conditions: MARK4, 1µM; read-out: %Remaining activity at 1µM NU6300. How it is done: as §1, §2, §3

Experiment [8] concerns the target BRK (Homo sapiens, UniProt Q13882). The settings on record: read-out: %Remaining activity at 1µM NU6300. How it is done: as §1, §2, §3
The target of experiment [9] is CHK2 (Homo sapiens, UniProt O96017). As to conditions: CHK2, 1µM; read-out: %Remaining activity at 1µM NU6300. How it is done:
as §1, §2, §3

The target in experiment [10] is CDK2-Cyclin A (Homo sapiens, UniProt P24941). The settings on record: read-out: %Remaining activity at 1µM NU6300. How it is done:
as §1, §2, §3

Experiment [11] has as its target IGF-1R (Homo sapiens, UniProt P08069). The settings on record: read-out: %Remaining activity at 1µM NU6300. How it is done: as §1, §2, §3
In experiment [12] the target is JNK2 (Homo sapiens, UniProt P45984). The settings on record: JNK2, 1µM; read-out: %Remaining activity at 1µM NU6300. On the procedure: as §1, §2, §3
The target of experiment [13] is Aurora B (Homo sapiens, UniProt Q96GD4). The settings on record: read-out: %Remaining activity at 1µM NU6300. How it is done: as §1, §2, §3
For experiment [14], the target named is CLK2 (Homo sapiens, UniProt P49760). The settings on record: CLK2, 1µM; read-out: %Remaining activity at 1µM NU6300. How it is done: as §1, §2, §3
For experiment [15], the target named is CK1γ2 (Homo sapiens, UniProt P78368). The settings on record: CK1γ2, 1µM; read-out: %Remaining activity at 1µM NU6300. How it is done: as §1, §2, §3
In experiment [16] the target is IRAK4 (Homo sapiens, UniProt Q9NWZ3). As to conditions: IRAK4, 1µM; read-out: %Remaining activity at 1µM NU6300. How it is done:
as §1, §2, §3

Experiment [17] has as its target MELK (Homo sapiens, UniProt Q14680). The settings on record: read-out: %Remaining activity at 1µM NU6300. On the procedure: as §1, §2, §3
Experiment [18] deals with MARK2 (Homo sapiens, UniProt Q7KZI7). As to conditions: MARK2, 1µM; read-out: %Remaining activity at 1µM NU6300. How it is done: as §1, §2, §3
Experiment [19] deals with MKK1 (Homo sapiens, UniProt Q02750). The settings on record: MKK1, 1µM; read-out: %Remaining activity at 1µM NU6300. On the procedure: as §1, §2, §3
The target of experiment [20] is EPH-A4 (Homo sapiens, UniProt P54764). The settings on record: EPH-A4, 1µM; read-out: %Remaining activity at 1µM NU6300. On the procedure: as §1, §2, §3
For experiment [21], the target named is MAPKAP-K2 (Homo sapiens, UniProt P49137). The settings on record: MAPKAP-K2, 1µM; read-out: %Remaining activity at 1µM NU6300. How it is done:
as §1, §2, §3

Structures are written as SMILES.

Sequence of MAPKAP-K2 (P49137 whole entry): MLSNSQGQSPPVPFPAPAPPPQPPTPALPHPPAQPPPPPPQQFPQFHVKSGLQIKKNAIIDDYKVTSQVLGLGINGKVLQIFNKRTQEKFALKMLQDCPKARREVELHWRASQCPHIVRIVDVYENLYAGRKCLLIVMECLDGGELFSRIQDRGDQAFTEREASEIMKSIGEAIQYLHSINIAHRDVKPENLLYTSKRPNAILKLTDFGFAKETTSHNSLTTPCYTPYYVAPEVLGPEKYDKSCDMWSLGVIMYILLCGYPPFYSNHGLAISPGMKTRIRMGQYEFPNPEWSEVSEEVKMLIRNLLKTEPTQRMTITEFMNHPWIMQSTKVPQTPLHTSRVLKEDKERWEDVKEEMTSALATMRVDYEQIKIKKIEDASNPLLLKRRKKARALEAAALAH
Sequence of EPH-A4 (P54764 20-986): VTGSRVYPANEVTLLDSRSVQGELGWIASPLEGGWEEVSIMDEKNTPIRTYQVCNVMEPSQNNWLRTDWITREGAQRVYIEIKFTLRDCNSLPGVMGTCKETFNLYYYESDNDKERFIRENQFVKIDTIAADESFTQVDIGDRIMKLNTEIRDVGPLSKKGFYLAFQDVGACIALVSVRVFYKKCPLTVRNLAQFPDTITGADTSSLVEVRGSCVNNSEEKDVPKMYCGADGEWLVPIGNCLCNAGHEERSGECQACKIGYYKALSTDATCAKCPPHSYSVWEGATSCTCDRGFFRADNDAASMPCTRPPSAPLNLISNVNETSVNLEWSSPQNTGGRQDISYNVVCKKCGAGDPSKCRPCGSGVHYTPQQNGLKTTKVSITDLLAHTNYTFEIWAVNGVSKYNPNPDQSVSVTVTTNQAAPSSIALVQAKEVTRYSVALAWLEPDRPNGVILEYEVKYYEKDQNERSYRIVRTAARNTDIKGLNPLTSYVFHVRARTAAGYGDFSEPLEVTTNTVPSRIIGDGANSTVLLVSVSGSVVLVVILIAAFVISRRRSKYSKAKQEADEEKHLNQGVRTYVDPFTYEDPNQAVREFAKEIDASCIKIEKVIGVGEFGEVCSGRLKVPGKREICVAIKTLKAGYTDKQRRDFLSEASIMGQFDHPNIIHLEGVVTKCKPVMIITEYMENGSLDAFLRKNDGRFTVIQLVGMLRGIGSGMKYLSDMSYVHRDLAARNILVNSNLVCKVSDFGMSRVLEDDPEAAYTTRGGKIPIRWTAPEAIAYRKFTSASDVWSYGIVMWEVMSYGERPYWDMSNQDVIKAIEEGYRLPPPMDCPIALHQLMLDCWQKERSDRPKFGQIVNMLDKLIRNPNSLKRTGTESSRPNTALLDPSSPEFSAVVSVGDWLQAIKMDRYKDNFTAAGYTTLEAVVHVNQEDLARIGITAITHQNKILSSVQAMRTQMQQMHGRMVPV
Sequence of BRSK2 (Q8IWQ3 whole entry): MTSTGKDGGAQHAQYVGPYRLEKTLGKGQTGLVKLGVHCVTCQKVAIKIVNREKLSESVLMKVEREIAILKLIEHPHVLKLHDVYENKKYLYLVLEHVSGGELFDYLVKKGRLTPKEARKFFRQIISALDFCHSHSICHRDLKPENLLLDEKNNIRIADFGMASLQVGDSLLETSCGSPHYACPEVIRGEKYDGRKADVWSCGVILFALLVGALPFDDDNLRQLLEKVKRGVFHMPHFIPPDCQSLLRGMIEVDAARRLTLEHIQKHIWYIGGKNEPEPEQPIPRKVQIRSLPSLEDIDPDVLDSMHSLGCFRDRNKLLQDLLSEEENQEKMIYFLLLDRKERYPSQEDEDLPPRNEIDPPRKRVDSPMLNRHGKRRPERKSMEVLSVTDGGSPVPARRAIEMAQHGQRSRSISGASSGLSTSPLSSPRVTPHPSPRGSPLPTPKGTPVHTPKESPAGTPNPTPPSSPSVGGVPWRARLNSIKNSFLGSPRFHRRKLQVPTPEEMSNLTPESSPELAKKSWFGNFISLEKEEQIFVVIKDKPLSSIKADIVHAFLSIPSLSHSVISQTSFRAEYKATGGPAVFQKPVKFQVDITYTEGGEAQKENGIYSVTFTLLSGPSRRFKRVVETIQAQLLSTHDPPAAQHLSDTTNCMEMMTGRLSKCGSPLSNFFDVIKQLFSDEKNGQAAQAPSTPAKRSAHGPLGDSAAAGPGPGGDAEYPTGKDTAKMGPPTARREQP
Sequence of MKK1 (Q02750 whole entry): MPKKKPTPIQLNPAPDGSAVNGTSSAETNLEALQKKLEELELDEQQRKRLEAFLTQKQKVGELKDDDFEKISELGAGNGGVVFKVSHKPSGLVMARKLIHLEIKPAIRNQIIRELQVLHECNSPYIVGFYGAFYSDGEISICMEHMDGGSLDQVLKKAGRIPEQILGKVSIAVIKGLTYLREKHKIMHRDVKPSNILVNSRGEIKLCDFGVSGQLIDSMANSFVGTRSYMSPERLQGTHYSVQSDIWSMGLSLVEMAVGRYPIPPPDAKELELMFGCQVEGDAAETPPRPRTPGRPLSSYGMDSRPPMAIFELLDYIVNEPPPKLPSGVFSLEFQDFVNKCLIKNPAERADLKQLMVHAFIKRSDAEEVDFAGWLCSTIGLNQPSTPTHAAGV
Sequence of MARK2 (Q7KZI7 whole entry): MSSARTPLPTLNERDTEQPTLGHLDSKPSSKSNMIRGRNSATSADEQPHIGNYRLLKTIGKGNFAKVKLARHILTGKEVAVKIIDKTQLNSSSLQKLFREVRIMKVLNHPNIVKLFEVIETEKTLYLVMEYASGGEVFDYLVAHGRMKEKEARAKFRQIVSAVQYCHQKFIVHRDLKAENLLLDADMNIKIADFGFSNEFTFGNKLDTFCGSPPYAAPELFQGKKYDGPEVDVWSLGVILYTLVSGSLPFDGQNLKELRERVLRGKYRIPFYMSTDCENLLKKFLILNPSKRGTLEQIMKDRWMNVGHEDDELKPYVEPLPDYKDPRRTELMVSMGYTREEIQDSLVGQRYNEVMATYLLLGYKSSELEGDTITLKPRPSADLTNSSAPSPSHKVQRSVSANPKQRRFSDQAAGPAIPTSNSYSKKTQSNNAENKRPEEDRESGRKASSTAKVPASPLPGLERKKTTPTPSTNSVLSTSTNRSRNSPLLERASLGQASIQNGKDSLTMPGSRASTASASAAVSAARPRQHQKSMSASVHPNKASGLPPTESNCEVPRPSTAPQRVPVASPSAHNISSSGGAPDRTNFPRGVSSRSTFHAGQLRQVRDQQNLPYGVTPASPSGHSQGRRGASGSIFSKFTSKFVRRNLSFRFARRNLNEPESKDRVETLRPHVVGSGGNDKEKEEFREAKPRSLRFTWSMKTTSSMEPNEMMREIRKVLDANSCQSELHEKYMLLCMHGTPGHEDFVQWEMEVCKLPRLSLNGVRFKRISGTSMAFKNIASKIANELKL
Sequence of IRAK4 (Q9NWZ3 whole entry): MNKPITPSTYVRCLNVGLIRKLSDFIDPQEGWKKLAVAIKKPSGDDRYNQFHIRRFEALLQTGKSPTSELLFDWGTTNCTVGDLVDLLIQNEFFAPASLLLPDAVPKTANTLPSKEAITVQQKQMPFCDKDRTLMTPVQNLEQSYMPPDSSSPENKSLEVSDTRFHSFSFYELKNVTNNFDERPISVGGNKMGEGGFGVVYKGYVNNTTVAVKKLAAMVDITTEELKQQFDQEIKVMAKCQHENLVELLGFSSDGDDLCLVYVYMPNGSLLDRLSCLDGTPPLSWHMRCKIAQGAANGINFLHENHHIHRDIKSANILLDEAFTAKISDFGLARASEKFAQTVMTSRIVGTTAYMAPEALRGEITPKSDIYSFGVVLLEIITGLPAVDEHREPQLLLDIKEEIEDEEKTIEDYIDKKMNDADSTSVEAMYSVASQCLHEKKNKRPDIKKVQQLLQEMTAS
Sequence of CLK2 (P49760 whole entry): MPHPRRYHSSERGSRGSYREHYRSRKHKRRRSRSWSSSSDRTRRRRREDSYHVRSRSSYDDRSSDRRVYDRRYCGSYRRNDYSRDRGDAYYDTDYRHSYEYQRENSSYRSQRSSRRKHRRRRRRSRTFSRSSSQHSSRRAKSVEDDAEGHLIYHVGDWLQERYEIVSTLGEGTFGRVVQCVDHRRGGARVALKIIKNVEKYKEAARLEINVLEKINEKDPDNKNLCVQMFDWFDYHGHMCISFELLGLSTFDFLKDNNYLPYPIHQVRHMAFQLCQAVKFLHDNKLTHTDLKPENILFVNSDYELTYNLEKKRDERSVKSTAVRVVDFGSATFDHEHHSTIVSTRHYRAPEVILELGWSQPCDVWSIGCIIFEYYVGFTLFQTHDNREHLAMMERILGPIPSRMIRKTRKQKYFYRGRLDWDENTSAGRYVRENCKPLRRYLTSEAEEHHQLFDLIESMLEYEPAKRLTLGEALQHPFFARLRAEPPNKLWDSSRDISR
Sequence of BRK (Q13882 whole entry): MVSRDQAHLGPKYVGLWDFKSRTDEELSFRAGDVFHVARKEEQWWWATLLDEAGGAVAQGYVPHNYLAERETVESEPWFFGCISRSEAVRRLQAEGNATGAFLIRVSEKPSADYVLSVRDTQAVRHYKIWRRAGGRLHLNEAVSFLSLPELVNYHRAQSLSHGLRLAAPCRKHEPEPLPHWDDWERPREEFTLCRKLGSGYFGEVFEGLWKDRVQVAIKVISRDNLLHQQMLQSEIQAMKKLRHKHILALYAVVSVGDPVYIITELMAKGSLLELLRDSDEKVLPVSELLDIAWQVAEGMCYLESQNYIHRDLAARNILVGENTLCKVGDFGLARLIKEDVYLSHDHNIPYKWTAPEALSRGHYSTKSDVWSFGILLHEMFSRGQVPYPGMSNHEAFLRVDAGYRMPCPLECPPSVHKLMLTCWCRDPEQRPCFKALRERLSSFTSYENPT

As for `C=CS(=O)(=O)c1ccc(Nc2nc(OCC3CCCCC3)c3nc[nH]c3n2)cc1` [NU6300, 6-(cyclohexylmethoxy)-N-(4-(vinylsulfonyl)phenyl)-9H-purin-2-amine], the remaining activity (as a rule, the share of the control activity or signal that is left under treatment) at 1 µM in experiment [1] is 32%; in experiment [2], 56%; in experiment [3] it was 84%; in experiment [4], 17%; in experiment [5], 69%; in experiment [6], 60%. The remaining activity at 1 µM is 37% in experiment [7]; 59% in experiment [8]; 39% in experiment [9]; 27% in experiment [10]; 79% in experiment [11]; 88% in experiment [12]. In addition, the remaining activity at 1 µM in experiment [13] worked out at 26%; in experiment [14], 27%; in experiment [15], 79%; in experiment [16], 78%; in [17] it was 55%; in experiment [18], 69%. The values for the remaining activity at 1 µM in experiment [19], in experiment [20] and in [21] were 58%, 69% and 93%, respectively.
